Measured values published in patent US11571412B2, “Thromboxane receptor antagonists in AERD/asthma” (Cumberland Pharmaceuticals Inc., priority 2015, dated 2023).
“Also recorded” adds a separate entry of the source. Read-outs that look alike come from different tables or passages of the source.

Experiments:
[1] = test system: patients with a history of aspirin exacerbated respiratory disease (AERD); experiment: Multicenter, double-blind, randomized, placebo-controlled trial of oral ifetroban with aspirin challenge/desensitization (AERD Phase 2a); type: in vivo, human; conditions: for Incidence of an AIR by Aspirin Dose: AIR population n = 10; for NIFR ≥25% decrease / NIFR ≥25% increase / TNSS ≥25% decrease / TNSS ≥25% increase: ifetroban 200 mg/day oral; for Rescue Medications Mean (SD): to resolve an AIR
Text: Example IV is a multicenter, double-blind, randomized, placebo-controlled trial to determine the safety of oral ifetroban in patients with a history of aspirin exacerbated respiratory disease (AERD).
The eligible subjects were randomized (3:1 active to placebo) in this 7-day study which consisted of a screening, treatment and follow-up period. Any subject receiving at least a partial dose of IMP were not replaced and included in the study analysis. Of 19 subjects enrolled and randomized to study treatment, 14 (74%) were randomized to the ifetroban group and 5 (26%) to the placebo group. Of those 14 randomized to ifetroban, 12 (86%) subjects were treated and 100% of those treated completed treatment. Of 5 subjects randomized to placebo, 4 (80%) started treatment and 100% completed treatment. All treated subjects were analyzed for safety and efficacy variables.
All individuals with AERD will experience a clinical reaction to aspirin, most often at a dose of 81 mg or below. By utilizing a modified Scripps Institute protocol (Hope, Woessner, Simon, & Stevenson, 2009), limiting the study to individuals with stable asthma and no history of life-threatening reaction to COX inhibitors and administering the cysteinyl leukotriene receptor 1 (Cys-LT1) antagonist montelukast to all individuals undergoing the challenge/desensitization, the procedure could safely be done in an ambulatory/outpatient clinic setting. […] Thus, montelukast substantially increases the safety of aspirin challenge/desensitization and it is the standard of care to use montelukast as a pre-treatment for subjects with AERD undergoing a planned aspirin challenge/desensitization.
The primary objective of this study was to determine the safety of oral ifetroban compared to placebo as measured by a ≥20% decrease in Forced Expiratory Volume in 1 second (FEV1) compared to baseline following a dose of Investigational Medicinal Product (IMP) (Study Day 1) or following a dose of IMP but prior to initiation of the aspirin challenge. Secondary objectives were: (i) to determine the safety of oral ifetroban compared to placebo as measured by peak Nasal Inspiratory Flow Rate (NIFR) compared to baseline following a dose of IMP (Study Day 1) or following a dose of IMP but prior to initiation of the aspirin challenge; (ii) to determine the safety of oral ifetroban compared to placebo as measured by the change in Total Nasal Symptom Score (TNSS) compared to baseline following a dose of IMP (Study Day 1) or following a dose of IMP but prior to initiation of the aspirin challenge; (iii) to determine the safety and tolerability of oral ifetroban compared to placebo as measured by treatment-emergent adverse events; (iv) to determine the efficacy of oral ifetroban compared to placebo in decreasing the respiratory reaction to oral aspirin as measured by the change in FEV1 compared to baseline during the aspirin challenge; (v) to determine the efficacy of oral ifetroban compared to placebo in decreasing the respiratory reaction to oral aspirin as measured by the change in NIFR compared to baseline during the aspirin challenge; (vi) to determine the efficacy of oral ifetroban compared to placebo in decreasing the respiratory reaction to oral aspirin as measured by the change in TNSS compared to baseline during the aspirin challenge; (vii) to determine the efficacy of oral ifetroban compared to placebo in decreasing the respiratory reaction to oral aspirin as measured by the amount of rescue medication during the aspirin challenge; (viii) to determine the efficacy of oral ifetroban compared to placebo in decreasing respiratory sensitivity to COX-1 inhibition as measured by the aspirin desensitization dose level; and (ix) to determine the efficacy of oral ifetroban compared to placebo as measured by the number of asthmatic reactions during the Treatment Period. […]

[2] = test system: guinea pig trachea; conditions: in vitro; cited from earlier work
[3] = test system: TP receptor-induced bronchospasm; conditions: rats; cited from earlier work
[4] = test system: TP receptor-induced bronchospasm; conditions: guinea pigs; cited from earlier work
[5] = test system: Df-treated ptges−/− mice; conditions: cited from earlier work; for Reaction to aspirin (peak change in RL in response to Lys-ASA challenge): two doses of antagonist prior to challenge with Lys-ASA
[6] = target: CYP2C9 (Homo sapiens, UniProt P11712); conditions: cited from earlier work
Sequence of CYP2C9 (P11712 whole entry): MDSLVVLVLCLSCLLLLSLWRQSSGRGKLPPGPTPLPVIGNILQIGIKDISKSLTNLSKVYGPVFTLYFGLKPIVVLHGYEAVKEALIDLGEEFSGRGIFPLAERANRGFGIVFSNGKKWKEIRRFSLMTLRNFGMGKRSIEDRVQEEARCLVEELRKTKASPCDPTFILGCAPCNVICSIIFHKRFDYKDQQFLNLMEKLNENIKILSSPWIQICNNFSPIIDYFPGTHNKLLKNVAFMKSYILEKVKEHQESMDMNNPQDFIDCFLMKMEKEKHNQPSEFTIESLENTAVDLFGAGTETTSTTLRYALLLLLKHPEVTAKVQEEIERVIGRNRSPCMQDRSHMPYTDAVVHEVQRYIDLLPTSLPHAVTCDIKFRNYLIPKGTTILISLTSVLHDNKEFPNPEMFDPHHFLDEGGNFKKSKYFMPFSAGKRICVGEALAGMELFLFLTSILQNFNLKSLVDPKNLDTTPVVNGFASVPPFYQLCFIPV

[7] = target: CYP3A4 (Homo sapiens, UniProt P08684); conditions: cited from earlier work
Sequence of CYP3A4 (P08684 whole entry): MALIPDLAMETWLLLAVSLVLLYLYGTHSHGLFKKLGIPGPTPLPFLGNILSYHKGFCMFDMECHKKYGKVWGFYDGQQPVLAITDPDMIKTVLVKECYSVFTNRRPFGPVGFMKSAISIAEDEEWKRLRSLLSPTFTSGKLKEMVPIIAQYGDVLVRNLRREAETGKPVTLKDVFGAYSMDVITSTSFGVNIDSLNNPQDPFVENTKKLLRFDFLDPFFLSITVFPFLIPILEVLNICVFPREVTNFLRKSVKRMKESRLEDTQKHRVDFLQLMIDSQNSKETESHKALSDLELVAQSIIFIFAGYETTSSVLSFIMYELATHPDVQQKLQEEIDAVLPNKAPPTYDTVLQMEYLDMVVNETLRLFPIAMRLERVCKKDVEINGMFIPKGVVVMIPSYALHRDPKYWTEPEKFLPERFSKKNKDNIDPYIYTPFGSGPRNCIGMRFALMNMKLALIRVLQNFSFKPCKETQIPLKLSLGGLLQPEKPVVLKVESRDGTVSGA

[8] = Phase A, n = 12, listed as ifetroban
[9] = Phase B (aspirin challenge), n = 12
[10] = aspirin desensitization, n = 12
[11] = column headed Phase C (overall, during the study), n = 12
[12] = subjects that experienced an AIR
[13] = subjects that experienced an AIR, listed as ifetroban

## CCCCCNC(=O)c1coc([C@H]2[C@@H](Cc3ccccc3CCC(=O)O)[C@@H]3CC[C@H]2O3)n1 [Ifetroban, [1S-(1α,2α,3α,4α)]-2-[[3-[4-[(Pentylamino)carbonyl]-2-oxazolyl]-7-oxabicyclo[2.2.1]hept-2-yl]methyl]-benzenepropanoic acid]
[1]; 7.33 (placebo) versus 2.90 (ifetroban) to resolve an AIR
  Difference in mean rescue medications, placebo versus ifetroban: 2.5 fold
[1]; AIR subjects n = 10
  Severity of an AIR: All Symptoms (total number): 43
[1]; Aspirin Dose 30 mg
  Incidence of an AIR by Aspirin Dose: 0 No. of Subjects (%)
[1]; Aspirin Dose 60 mg
  Incidence of an AIR by Aspirin Dose: 5 (50) No. of Subjects (%)
[1]; Aspirin Dose 100 mg
  Incidence of an AIR by Aspirin Dose: 5 (50) No. of Subjects (%)
[1]; Aspirin Dose 150 mg
  Incidence of an AIR by Aspirin Dose: 0 No. of Subjects (%)
[1]; Aspirin Dose 325 mg
  Incidence of an AIR by Aspirin Dose: 0 No. of Subjects (%)
[1]; Phase A, n = 12
  NIFR ≥25% decrease: 2(17) No. of Subjects (%)
  NIFR ≥25% increase: 3(25) No. of Subjects (%)
  TNSS ≥25% decrease: 1(8) No. of Subjects (%)
  TNSS ≥25% increase: 0 No. of Subjects (%)
[1]; [8]
  TNSS ≥25% decrease: 1 (8%) No. of Subjects (%)
  TNSS ≥25% increase: No subject
[1]; [9]
  NIFR ≥25% decrease: 4(33) No. of Subjects (%)
  NIFR ≥25% increase: 7(58) No. of Subjects (%)
  TNSS ≥25% decrease: 2(17) No. of Subjects (%)
  TNSS ≥25% increase: 3(25) No. of Subjects (%)
[1]; Phase B (aspirin challenge), n = 12, listed as ifetroban
  TNSS ≥25% decrease: 2 (17%) No. of Subjects (%)
[1]; aspirin challenge
  Average number of symptoms per AIR compared to placebo: comparable between treatment groups
  Bronchial reaction (<20% decrease in FEV1, wheezing, chest tightness) as part of the AIR compared to placebo: at a similar rate
  Ocular manifestation compared to placebo: seems to trend toward the placebo arm more often than on the ifetroban arm
  Upper respiratory effect (rhinorrhea, nasal obstruction, sneezing) compared to placebo: equally as common between treatment groups
[1]; aspirin challenge (phase B)
  Number of rescue medications compared to placebo (trend): apparent trend toward fewer rescue medications in favor of the ifetroban group
  Total Number of Rescue Medications: 29
[1]; [10]
  Aspirin-induced Reaction (AIR): No: 2 (17) No. of Subjects (%)
  Aspirin-induced Reaction (AIR): Yes: 10 (83) No. of Subjects (%)
[1]; between treatment groups
  Proportion of subjects with worsening NIFR or TNSS compared to placebo: no clear trends were observed; also recorded: no appreciable difference was observed
[1]; [11]
  NIFR ≥25% decrease: 5(42) No. of Subjects (%)
  NIFR ≥25% increase: 9(75) No. of Subjects (%)
  TNSS ≥25% decrease: 2(17) No. of Subjects (%)
  TNSS ≥25% increase: 3(25) No. of Subjects (%)
[1]; column headed Phase C (overall, during the study), n = 12, listed as ifetroban
  NIFR ≥25% increase: 9 (75%) No. of Subjects (%)
[1]; during IMP treatment or the aspirin desensitization process, 200 mg/day
  ≥20% decrease in FEV1 (primary endpoint): did not cause a ≥20% decrease in FEV1
[1]; during both phase A and phase B
  Subjects with ≥25% decrease in peak NIFR during both phase A and phase B: One
[1]; during phase A and phase B
  Improvements to NIFR and TNSS compared to placebo: observed trend in favor of the ifetroban group toward greater improvements
[1]; during the study
  Subjects with ≥50% or 75% increase or decrease in TNSS: No one
[1]; ifetroban at 200 mg/day
  AEs reported compared to placebo: no increase in AEs
[1]; ifetroban at 200 mg/day, subjects with a history of AERD
  Safety and tolerability: well tolerated and safe
[1]; ifetroban at a dose of 200 mg/day
  Symptoms of aspirin desensitization in AERD patients: may be diminished
[1]; n = 10
  Severity of an AIR: <20% decrease in FEVI (number): 9
  Severity of an AIR: <20% decrease in FEVI Mean: 0.9
  Severity of an AIR: All Symptoms Median: 4
  Severity of an AIR: All Symptoms Min, Max: 3.7
  Severity of an AIR: Lower Respiratory (number of symptoms): 13
  Severity of an AIR: Lower Respiratory Mean: 1.3
  Severity of an AIR: Ocular (number of symptoms): 5
  Severity of an AIR: Ocular Mean: 0.5
  Severity of an AIR: Upper Respiratory (number of symptoms): 25
  Severity of an AIR: Upper Respiratory Mean: 2.5
[1]; per AIR, n = 10
  Severity of an AIR: All Symptoms Mean(SD): 4.3(1.34)
[1]; phase A prior to aspirin initiation
  Asthmatic reactions reported or rescue medications used: No asthmatic reactions were reported or rescue medications used
[1]; provoking aspirin dose 60 mg
  Initial reactions occurring at the 60-mg aspirin dose: 50%
[1]; [12]
  Required Rescue Medication: No: 1 (10) No. of Subjects (%)
  Required Rescue Medication: Yes: 9 (90) No. of Subjects (%)
  Rescue Medications Max: 7
  Rescue Medications Median: 3
  Rescue Medications Min: 0
  Rescue Medications Mean (SD): 2.90 (2.02)
[1]; [13]
  Required Rescue Medication: No: 1 (10%) No. of Subjects (%)
  Rescue Medications Mean (SD): 2.90
[1]; throughout the 7-day study period
  Rescue medication outside the clinic for an asthmatic reaction: no subject required rescue medication outside the clinic
[1]; throughout the treatment period
  Mean changes from baseline FEV1: below 20%
[2]
  Contraction of guinea pig trachea elicited by PGD2: inhibit contraction
[3]
  TP receptor-induced bronchospasm: both preempt and reverse
[4]
  TP receptor-induced bronchospasm: both preempt and reverse

## CC(c1ccccc1)C(O)/C=C/C1C2CCC(O2)C1C/C=C\CCCC(=O)O (stereo not drawn) [[1S-(1α, 2α(Z), 3α(1E, 3S*, 4R*), 4α)]]-7-[3-(3-hydroxy-4-phenyl-1-pentenyl)-7-oxabicyclo[2.2.1]hept-2-yl]-5-heptenoic acid]
[5]; ptges−/− mice, Lys-ASA challenge
  Rise in cys-LTs (BAL fluid): completely blocked
[5]; ptges−/− mice
  Reaction to aspirin (peak change in RL in response to Lys-ASA challenge): completely blocked
[5]; ptges−/− mice, listed as SQ29.548
  Reaction to aspirin (peak change in RL in response to Lys-ASA challenge): attenuates aspirin sensitivity

## CC(C)(O)c1ccccc1CC[C@@H](SCC1(CC(=O)O)CC1)c1cccc(/C=C/c2ccc3ccc(Cl)cc3n2)c1 [montelukast]
[6]
  Inhibition of CYP2C9: does not inhibit
[7]
  Inhibition of CYP3A4: does not inhibit

## CC(c1cc2ccccc2s1)N(O)C(N)=O (centres unmarked) [zileuton]
[5]; Df-treated ptges−/− mice
  Increase in airway resistance on inhalation of Lysine aspirin: sensitive to interference
